PubChem BioAssay (NCI)
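Exposure lasted 48 hours, with cells grown in 96-well plates and compounds tested at five concentrations. At the TGI there is no net growth.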

Experiments:
Assay in all cases: NCI tumour cell line growth inhibition, 48 h
786-0 renal = test system: 786-0 renal
A498 renal = test system: A498 renal
A549 NSCLC = test system: A549 NSCLC
ACHN renal = test system: ACHN renal
CAKI-1 renal = test system: CAKI-1 renal
CCRF-CEM leukemia = test system: CCRF-CEM leukemia
COLO 205 colon = test system: COLO 205 colon
DLD-1 colon = test system: DLD-1 colon
DMS 114 small cell lung = test system: DMS 114 small cell lung
DMS 273 small cell lung = test system: DMS 273 small cell lung
EKVX NSCLC = test system: EKVX NSCLC
HCC-2998 colon = test system: HCC-2998 colon
HCT-116 colon = test system: HCT-116 colon
HCT-15 colon = test system: HCT-15 colon
HL-60(TB) leukemia = test system: HL-60(TB) leukemia
HOP-18 NSCLC = test system: HOP-18 NSCLC
HOP-62 NSCLC = test system: HOP-62 NSCLC
HOP-92 NSCLC = test system: HOP-92 NSCLC
HT29 colon = test system: HT29 colon
IGROV1 ovarian = test system: IGROV1 ovarian
K-562 leukemia = test system: K-562 leukemia
KM12 colon = test system: KM12 colon
KM20L2 colon = test system: KM20L2 colon
LOX IMVI melanoma = test system: LOX IMVI melanoma
LXFL 529 NSCLC = test system: LXFL 529 NSCLC
M14 melanoma = test system: M14 melanoma
M19-MEL melanoma = test system: M19-MEL melanoma
MALME-3M melanoma = test system: MALME-3M melanoma
MOLT-4 leukemia = test system: MOLT-4 leukemia
NCI-H226 lung = test system: NCI-H226 lung
NCI-H23 lung = test system: NCI-H23 lung
NCI-H460 lung = test system: NCI-H460 lung
OVCAR-3 ovarian = test system: OVCAR-3 ovarian
OVCAR-4 ovarian = test system: OVCAR-4 ovarian
OVCAR-5 ovarian = test system: OVCAR-5 ovarian
OVCAR-8 ovarian = test system: OVCAR-8 ovarian
RPMI-8226 leukemia = test system: RPMI-8226 leukemia
RXF 393 renal = test system: RXF 393 renal
SF-268 CNS = test system: SF-268 CNS
SF-295 CNS = test system: SF-295 CNS
SF-539 CNS = test system: SF-539 CNS
SK-MEL-2 melanoma = test system: SK-MEL-2 melanoma
SK-MEL-28 melanoma = test system: SK-MEL-28 melanoma
SK-MEL-5 melanoma = test system: SK-MEL-5 melanoma
SN12C renal = test system: SN12C renal
SNB-19 CNS = test system: SNB-19 CNS
SNB-75 CNS = test system: SNB-75 CNS
SNB-78 CNS = test system: SNB-78 CNS
SR leukemia = test system: SR leukemia
TK-10 renal = test system: TK-10 renal
UACC-257 melanoma = test system: UACC-257 melanoma
UACC-62 melanoma = test system: UACC-62 melanoma
UO-31 renal = test system: UO-31 renal
XF 498 CNS = test system: XF 498 CNS

Measured: TGI

C/C(CC(=O)Nc1ccc(Cl)c(Cl)c1)=N/NC(=O)C[N+](C)(C)C
35.5 µM: LOX IMVI melanoma
63.4 µM: RPMI-8226 leukemia
55.6 µM: DMS 114 small cell lung
43.2 µM: SR leukemia
> 100 µM: all other assays above
